# Key:
# [1] = test system: MDA-MB-231; experiment: MTT assay, MDA-MB-231; type: cell-based; set-up: scale not given here; conditions: MDA-MB-231, TNBC cell line, 24 hours
# Excerpt: The 4T1 murine mammary tumor cell line and nine breast cancer cell lines representing the major breast cancer subtypes (ER+, HER2+, and TNBC) including MDA-MB-157, MDA-MB-436, MDA-MB-231, MDA-MB-453, MDA-MB-361, BT-474, SK-BR-3, MCF-7 and T47-D will be grown in RPMI or DMEM (Dulbecco's Modified Eagle Medium) media supplemented with 10% FBS (fetal bovine serum), 1% penicillin-streptomycin and 1% L-Glutamine. Patient derived xenograft cell lines BR7, BR11, and IBT will be established directly from breast cancer bone metastases specimens surgically resected from patients with informed consent. BR7 and BR11 specimens will be obtained from ER positive (HER2 negative and PR negative) metastatic breast cancer patients, while the IBT specimen will be obtained from a metastatic, triple negative breast cancer patient. Fresh tumor tissues will be quickly washed with ice cold PBS and minced into about 1-3 mm pieces in MEM medium (without FBS) using sterile razor blades. […] The cells will be treated with either 100 μM DMSO, AGX51, or a compound of the present technology such as AGX-A. The cell morphology and growth will be monitored daily for 1 week by microscopy for changes in morphology or cell death. […] Absorbance will then measured at 570 nm using a plate reader (Synergy 2, BioTek). […]
# [2] = test system: HUVEC; experiment: HUVEC cell branching assay on Matrigel; type: cell-based, human; conditions: 0-40 μM, 18-20 hours, p<0.05
# Method: HUVEC cell branching assays. For branching assays, 350 μL of Matrigel was loaded into each well of a 24-well plate on ice and incubate the plate for 30 minutes at 37° C. to allow the Matrigel to solidify. 80,000 HUVECs in 0.5 mL of EGM-2 medium with the indicated AGX concentration was plated on the solidified Matrigel. At 18-20 hours of incubation when the tube formation was peaked, media from the well was carefully removed and fixed with 10% buffered formalin for 15 minutes. Each well was washed with DPBS. The morphology of capillary like structures was visualized using an inverted microscope and photographed with a digital camera at 10× magnification. To quantify the tube network, Image J with the Angiogenesis Analyzer plugin (public domain Java-based image-processing program, reference: Carpentier G. ImageJ contribution: Angiogenesis Analyzer. ImageJ News. 2012) was installed and the analysis for the number of nodes, junctions, meshes and total branching length was performed as per the instruction. The statistical data analyses were performed using the Wilcoxon test.
# [3] = target: T1, ID1 (Homo sapiens, UniProt P41134); experiment: Ubiquitylation assay in HCT116 and U87 cells; type: cell-based; conditions: 60 μM AGX51 two hours, then MG132 six hours
# T1 sequence (P41134 1-155): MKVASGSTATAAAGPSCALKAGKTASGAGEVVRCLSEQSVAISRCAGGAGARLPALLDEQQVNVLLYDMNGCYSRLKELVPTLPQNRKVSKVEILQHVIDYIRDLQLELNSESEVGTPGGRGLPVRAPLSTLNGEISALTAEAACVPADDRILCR
# Method: Ubiquitylation assay. HCT116 cells were transfected with pcDNA3-ID1-Flag and pcDNA3-HA-Ubiquitin using lipofectamine 3000 (ThermoFisher). 36 hours after transfection, cells were treated with 60 μM AGX51 for two hours followed by 20 μM MG132 (EMD Millipore) for an additional six hours. After washing with ice-cold PBS twice, cells were lysed in 100 μL of TBS (50 mM Tris-HCl, pH 8.0, 150 mM NaCl) containing 2% SDS and boiled at 100° C. for 10 minutes. Lysates were diluted with 900 μL of TBS containing 1% NP40 and EDTA free protease inhibitor cocktail (Roche) and were cleared by centrifuge at 15,000 rpm for 15 minutes at 4° C. Immunoprecipitation was performed using 1 mg of cellular lysates with FLAG M2 affinity gel (Sigma, F2426). Ubiquitinylated proteins were analyzed by immunoblot using indicated antibodies.
# Id proteins are degraded by the ubiquitin 26S proteasome system. Lasorella et al., Nat Rev Cancer, 14: 77-91 (2014). To determine if this degradation pathway mediated the effects of AGX51 on Id protein levels was then explored. HUVECs are difficult to transfect with expression constructs, so HCT116 cells were utilized for this assay. HCT116 cells were transfected with a construct expressing Flag-ID1 and then treated with 60 μM AGX51 for 2-24 hours (FIG. 3B). […]
smiles,measurement,setting,value
"CCC(=O)N(CCC(c1ccc2c(c1)OCO2)c1ccccc1OC)Cc1ccccc1 (racemic) [AGX51, N-(3-(benzo[d][1,3]dioxol-5-yl)-3-(2-methoxyphenyl)propyl)-N-benzylpropionamide]",percentage at 60 μM (IC50 NA),[1],NA (60 μM = 70%)
same,"vascular branching (nodes, junctions, meshes, branch length)",[2],significantly impaired in a dose-dependent manner
same,ID1 polyubiquitylation,[3],further increased ID1 polyubiquitylation

# Source: US20220356163A1, “SMALL MOLECULE INHIBITORS OF Id PROTEINS” (MEMORIAL SLOAN KETTERING CANCER CENTER, priority 2019, published 2022)
